# According to patent US12448358B2, “Inhibitors of protein arginine deiminase 1 and methods of preparation and use thereof” (University of Massachusetts, priority 2019, dated 2025):
# Biological target: T1, PAD1 (Homo sapiens, UniProt Q9ULC6)
# T1 construct: made in house
# T1 sequence (Q9ULC6 1-663): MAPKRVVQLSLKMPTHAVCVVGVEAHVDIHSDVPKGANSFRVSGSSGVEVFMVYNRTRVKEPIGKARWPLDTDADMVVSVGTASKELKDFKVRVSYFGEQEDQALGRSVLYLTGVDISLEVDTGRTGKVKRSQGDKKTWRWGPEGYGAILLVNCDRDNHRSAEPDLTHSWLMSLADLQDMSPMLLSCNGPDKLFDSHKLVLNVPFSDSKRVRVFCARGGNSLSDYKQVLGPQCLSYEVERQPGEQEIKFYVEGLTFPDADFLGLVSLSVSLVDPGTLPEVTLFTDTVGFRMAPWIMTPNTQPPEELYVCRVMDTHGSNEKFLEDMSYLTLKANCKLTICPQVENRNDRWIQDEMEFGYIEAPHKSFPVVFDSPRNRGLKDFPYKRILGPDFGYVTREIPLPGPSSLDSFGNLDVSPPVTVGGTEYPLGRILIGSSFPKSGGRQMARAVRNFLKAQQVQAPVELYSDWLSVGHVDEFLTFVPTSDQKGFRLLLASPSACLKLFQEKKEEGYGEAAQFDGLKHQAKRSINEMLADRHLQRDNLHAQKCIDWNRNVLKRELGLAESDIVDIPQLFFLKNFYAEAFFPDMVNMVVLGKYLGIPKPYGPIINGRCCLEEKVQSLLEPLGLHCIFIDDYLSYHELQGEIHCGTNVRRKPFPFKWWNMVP
# Experiment: Streptavidin enrichment and ReDiMe proteomics of proteins labelled by probe in HEK293TPAD1 cells (PAD1)
# Format: cell-based
# Conditions: 5 μM probe versus control
# Description: Enrichment of Proteins Labelled by 21 in HEK293TPAD1 Cells on Streptavidin-agarose. HEK293TPAD1 cells were cultured in 175 cm^2 T-175 flasks in DMEM (supplemented with 10% heat-inactivated fetal bovine serum, 100 units/mL penicillin, 100 μg/mL streptomycin and 0.15 mg/mL hygromycin B). Upon reaching ˜90% confluence, cells were treated with 1 mM CaCl2, 5 μM ionomycin and 5 μM of 21 (or equal volume of DMSO for control) in serum-free DMEM for 3 h. Then the cells were scraped, harvested by centrifugation at 3,000 rpm for 5 min and resuspended in 1×PBS. Cell lysis was performed by probe sonication and soluble proteins in the lysates were quantified by DC Assay (Bio-Rad). Endogenous biotinylated proteins were precleared by incubating the lysates with streptavidin-agarose beads (25 μL for 1 mg of total protein in the lysate) at room temperature for 1 h with constant mixing on an end-over-end shaker. The mixture was centrifuged (1200 g, 3 minute) to separate the beads and the supernatant (pre-cleared lysate). Pre-cleared lysates (2 mg/mL, 500 μL final) were clicked with Biotin-N3 (100 μM), TCEP (1.5 mM), TBTA (0.3 mM) and freshly prepared CuSO4 (4 mM), and the tubes were gently tumbled at room temperature for 2 h. The precipitated proteins were collected by centrifugation at 5,000 rpm for 10 min. […]
smiles,measurement,value
C#Cc1c(I)cc(C(=O)N[C@@H](CCCNC(=N)CF)c2nc3ccccc3[nH]2)c(O)c1I [Compound 21],Enrichment ratio (heavy/light) of PAD1,~20
